Test results: US20150320829A1, “Broad Spectrum Bacteriocin for Control of Unwanted Bacteria” (priority 2014, published 2015)
“Also recorded” adds a separate entry of the source.

Key:
[1] = tested on: LAB isolates from commercial ethanol plants (multiple species of Lactobacillus, Lactococcus, Weissella, Leuconostoc, Pediococcus, Enterococcus, and …); assay: Inhibitory activity spectrum: culture supernatant spotted onto indicator bacterial lawns; format: cell-based, lactic acid bacteria
Procedure: (§1) FIG. 1 is a schematic representation of the proteins responsible for producing the bacteriocin of the invention. In the discovery of the unique broad spectrum bacteriocin of this invention, indigenous LAB were isolated and purified from the fermentation mash of the commercial ethanol fermentation plants. The identities of the isolates were determined to the species level based on their 16s rDNA sequences. The capability of the isolated LAB strains to produce antimicrobial compounds was identified. Culture supernatants of the strains to be tested were spotted onto individual indicator bacterial culture lawns, which were prepared using a variety of LAB strains of different genera. […] Any positive activity of bacterial growth inhibition from the tested culture supernatant was confirmed again in the same manner, and the inhibitory activity spectrum of the antimicrobial compound is determined. […]
(§2) FIG. 1 is a schematic representation of the proteins responsible for producing the bacteriocin of the invention. The inhibitory activity spectrum of GP15cin against different strains was determined. The active concentration range and the minimum inhibition concentration of the bacteriocin are determined using different indicator strains. The activity levels of the bacteriocin present in the raw bacterial culture supernatants and/or in partially purified mixtures were also determined. […]

[2] = tested on: non-LAB isolates, such as strains of Staphylococcus, Enterobacter, Bacillus, and Clostridium; assay: as above; format: cell-based
Procedure: as §1, §2

[3] = Stability of bacteriocin activity at different temperatures and pH values; format: physicochemical
Text: FIG. 1 is a schematic representation of the proteins responsible for producing the bacteriocin of the invention. Either using crude, partially or completely purified form, the chemical characteristics of the bacteriocins can be determined. The determined characteristics include their sensitivities to different enzymes, stability at different temperatures and pH values, etc. Sensitivity of the bacteriocin to proteolytic and lipolytic enzymes, such as trypsin, pepsin, pronase, lipase, etc, was tested. The proteinaceus nature of GP15cin was confirmed. […] The same bacteriocin has optimal activity in the pH range of 4-10.

[4] = tested on: indigenous contaminating bacteria in fermentation mash from commercial ethanol plants; assay: Reduction of indigenous contaminating bacterial levels in ethanol fermentation mash; format: cell-based; details: crude form
Procedure: FIG. 1 is a schematic representation of the proteins responsible for producing the bacteriocin of the invention. The inhibitory activity spectrum of GP15cin against different strains was determined. The active concentration range and the minimum inhibition concentration of the bacteriocin are determined using different indicator strains. The activity levels of the bacteriocin present in the raw bacterial culture supernatants and/or in partially purified mixtures were also determined. […] FIG. 2 to FIG. 11 show the effectiveness of GP15cin in reducing the total levels of indigenous bacteria presented in fermentation mash from different commercial ethanol plants. The exact identities of the indigenous bacteria population in different plants are unknown and are likely highly diverse.
GP15cin described herein were produced by a L. plantarum strain, which was isolated from the indigenous LAB populations present during commercial ethanol fermentation. GP15cin can act towards species and/or strains of similar indigenous LAB populations and thus can be used as an effective control for contaminating LAB. […] Either fermentor or mash cooler mash samples were collected from 6 different commercial ethanol plants on 13 different days from 2012 to 2014. Results of 15 independent tests are shown. […]

[5] = tested on: contaminating LAB; assay: Lactic acid and acetic acid levels during laboratory-scale ethanol fermentation; format: cell-based, lactic acid bacteria
Text: GP15cin described herein were produced by a L. plantarum strain, which was isolated from the indigenous LAB populations present during commercial ethanol fermentation. GP15cin can act towards species and/or strains of similar indigenous LAB populations and thus can be used as an effective control for contaminating LAB. […] Either fermentor or mash cooler mash samples were collected from 6 different commercial ethanol plants on 13 different days from 2012 to 2014. Results of 15 independent tests are shown. […] It is likely that the effects on controlling contaminating bacteria and acids will be even more significant if a higher dose of […] is used. The presented results highlight the feasibility of GP15cin application for control of unwanted bacteria in ethanol and other biofuel industries.

[6] = tested on: Lactobacillus GP15 (production host); assay: Activity against own production host; format: cell-based, Lactobacillus plantarum
Text: As noted above, GP-15cin may be applied alone or in combination with other bacteriocin and/or bacteriophage virulent for unwanted bacteria in the same system. Bacteriocin producing hosts are immune to the bacteriocins produced by themselves. GP-15cin is therefore not active against its own production host, […]. […] Therefore it is desirable to combine GP-15cin with a different bacteriocin in a cocktail that will kill the bacteria insensitive to GP15cin. Additionally GP-15cin may be combined with other antimicrobial agents to broaden the scope of effectiveness against the range of unwanted bacteria that are targeted. For example the combination of bacteriocin and bacteriophage (phage) ensures a broader inhibition spectrum and more efficient control of the bacteria contamination. Phage targeting these non-sensitive strains can be isolated, and be combined with the bacteriocin for a complete control of contaminating bacteria.

[7] = tested on: Lactobacillus fermentum strain 0315-25; assay: Batch culture growth inhibition, bacteriocin and phage alone and combined; format: cell-based; details: 24 h
Procedure: Bacteriocin alone, bacteriophage alone, and bacteriocin combined with phage were tested against Lactobacillus in batch culture systems. To be specific, logarithmic growth phase cultures of Lactobacillus fermentum strain 0315-25 (OD600 being 0.1) were treated either with single agent at different doses, such as bacteriocin GP15cin alone at different doses (0.1%, 1%, and 10%, v/v), or a phage designated herein as LferInf alone at different MOIs (0.1, 1, and 10), or two agents combined together at different doses, such as 0.1% GP15cin plus LferInf at MOI of 0.1, 0.1% GP15cin plus phage LferInf at MOI of 1, 1% GP15cin plus LferInf at MOI of 0.1, and 1% GP15cin plus phage LferInf at MOI of 1. Culture without any treatment was served as control. LferInf is a bacteriophage isolated from wastewater and found to be effective against a broad host range of Lactobacillus and described in more detail below. The growth of bacteria was monitored for 24 h, and the treatment effects were compared.

Substance: plantaricin W [GP15cin]
- killing spectrum against a list of bacteria ([1]; LAB genera plus Staphylococcus, Enterobacter, Bacillus, Clostridium): extremely broad killing spectrum
- killing activity against LAB isolates ([1]; LAB isolates from commercial ethanol plants): broad range killing activity against the vast majority of the LAB isolates
- killing activity against non-LAB isolates [2]: showed killing activity
- pH range of optimal activity [3]: 4-10 pH
- loss of activity / heat resistance ([3]; after 2 hours at 120° C.): not a complete loss of activity
- reversibility of activity loss ([3]; extreme pH values): does not appear to be reversible
- loss of activity ([3]; pH 12): complete loss of activity
- reduction in activity ([3]; pH values of 1, 2, 3, and 11): 50%
- reduction in activity ([3]; temperature of 12.0° C. (so in the source)): 87.5%
- reduction in activity ([3]; temperatures of 65-100° C.): 50%
- time in which the reduction effect was seen [4]: ≥ 2 h
- reduction of indigenous contaminating bacteria levels ([4]; mash from 6 commercial ethanol plants, 15 independent tests): consistent reduction effects seen in all tests; also recorded: reduced indigenous contaminating bacteria levels in all mash samples
- acetic acid level produced by contaminating LAB [5]: significantly reduced
- lactic acid level produced by contaminating LAB [5]: significantly reduced
- activity against its own production host [6]: not active
- growth of L. fermentum compared to control ([7]; GP15cin alone at 0.1% v/v): all treatment, except GP15cin used at 0.1%, suppressed the growth
- growth of L. fermentum compared to control ([7]; GP15cin alone at 1% and 10% v/v): suppressed the growth
